From patent US9556150B2, “Inhibitors of bruton's tyrosine kinase” (Hoffmann-La Roche Inc., priority 2013, dated 2017)
Structures can show the parent of a compound that is named as a salt.

Molecular target: Bruton's Tyrosine Kinase (BTK), inactivated state (Homo sapiens (Human), UniProt Q06187)
Test: Bruton's Tyrosine Kinase (BTK) Inhibition TR-FRET (Time Resolved FRET) competition assay
Assay type: binding
Conditions: TR-FRET competition with Kinase Tracer 178, BTK-Eu complex, 18-24 h at 14° C.
Method: Bruton's Tyrosine Kinase (BTK) Inhibition TR-FRET (Time Resolved FRET) Assay
This BTK competition assay measures compound potency (IC50) for the inactivated state of Bruton's Tyrosine Kinase using FRET (Förster/Fluorescence Resonance Energy Transfer) technology. The BTK-Eu complex was incubated on ice one hour prior to use at a starting concentration of 50 nM BTK-Bioease™: 10 nM Eu-streptavidin (Perkin-Elmer Catalog#AD0062). The assay buffer consisted of 20 mM HEPES (pH 7.15), 0.1 mM DTT, 10 mM MgCl2, 0.5 mg/ml BSA with 3% Kinase Stabilizer (Fremont Biosolutions, Catalog #STB-K02). After 1 h, the reaction mixture from above was diluted 10 fold in assay buffer to make 5 nM BTK: 1 nM Eu-Streptavidin complex (donor fluorophore). 18 μl of a mixture of 0.11 nM BTK-Eu and 0.11 nM Kinase Tracer 178 (Invitrogen, Catalog #PV5593,) with BTK-Eu alone as no negative control, was then dispensed into 384-well flat bottom plates (Greiner, 784076). Compounds to be tested in assay were prepared as 10× concentrations and serial dilution in half-log increments was performed in DMSO so as to generate 10 point curves. To initiate the FRET reaction, compounds prepared as 10× stock in DMSO was added to the plates and the plates were incubated 18-24 h at 14° C.
After the incubation the plates were read on a BMG Pherastar Fluorescent plate reader (or equivalent) and used to measure the emission energy from the europium donor fluorophore (620 nm emission) and the FRET (665 nm emission). The negative control well values were averaged to obtain the mean minimum. The positive “no inhibitor” control wells were averaged to obtain the mean maximum. Percent of maximal FRET was calculated using following equation: % max FRET=100×[(FSR cmpd−FSR mean min)/(FSR mean max−FSR mean min)]
where FSR=FRET Signal ratio. % Max FRET curves were plotted in Activity Base (Excel) and the IC50(%), hill slope, z′ and % CV were determined. The mean IC50 and standard deviation will be derived from duplicate curves (singlet inhibition curves from two independent dilutions) using Microsoft Excel.
Representative compound data for this assay are listed below in Table II.

Bruton's Tyrosine Kinase (BTK), inactivated state, sequence (Q06187 whole entry): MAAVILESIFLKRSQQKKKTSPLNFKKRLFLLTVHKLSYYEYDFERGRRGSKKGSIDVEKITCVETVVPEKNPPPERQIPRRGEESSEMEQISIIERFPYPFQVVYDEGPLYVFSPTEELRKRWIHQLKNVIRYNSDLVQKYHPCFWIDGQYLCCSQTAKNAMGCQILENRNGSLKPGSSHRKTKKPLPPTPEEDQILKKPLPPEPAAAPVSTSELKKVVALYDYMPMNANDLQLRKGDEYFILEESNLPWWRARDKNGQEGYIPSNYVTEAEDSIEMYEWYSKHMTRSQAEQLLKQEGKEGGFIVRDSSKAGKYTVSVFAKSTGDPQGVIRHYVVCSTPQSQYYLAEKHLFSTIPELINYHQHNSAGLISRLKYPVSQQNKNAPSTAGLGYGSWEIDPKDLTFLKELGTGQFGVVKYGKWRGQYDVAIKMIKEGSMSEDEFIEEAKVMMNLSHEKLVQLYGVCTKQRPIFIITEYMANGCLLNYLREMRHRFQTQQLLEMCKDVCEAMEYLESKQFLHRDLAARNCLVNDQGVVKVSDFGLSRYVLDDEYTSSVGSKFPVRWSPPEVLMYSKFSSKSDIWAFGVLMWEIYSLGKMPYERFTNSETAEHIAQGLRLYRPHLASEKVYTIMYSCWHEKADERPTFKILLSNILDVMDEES

SMILES	IC50 [nM]
CN(C)C(=O)c1ccccc1Oc1ccc(-n2ncc(C(=O)c3cc4cc(C(=O)NCCN(C)C(=O)OC(C)(C)C)ccc4[nH]3)c2N)c(Cl)c1 [Example I-55, {2-[(2-{5-Amino-1-[2-chloro-4-(2-dimethylcarbamoyl-phenoxy)-phenyl]-1H-pyrazole-4-carbonyl}-1H-indole-5-carbonyl)-amino]-ethyl}-methyl-carbamic acid tert-butyl ester]	5.1
CNCCNC(=O)c1ccc2[nH]c(C(=O)c3cnn(-c4ccc(Oc5ccccc5C(=O)N(C)C)cc4Cl)c3N)cc2c1 [Example I-56, 2-{5-Amino-1-[2-chloro-4-(2-dimethylcarbamoyl-phenoxy)-phenyl]-1H-pyrazole-4-carbonyl}-1H-indole-5-carboxylic acid (2-methylamino-ethyl)-amideacetic acid salt]	3.1

Second part, the molecule after the results:

IC50 [nM]	SMILES
8	CN1CCN(C(=O)c2ccc3[nH]c(C(=O)c4cnn(-c5ccc(Oc6cccc(C#N)c6)cc5Cl)c4N)cc3c2)CC1 [Example I-44, 3-(4-{5-Amino-4-[5-(4-methyl-piperazine-1-carbonyl)-1H-indole-2-carbonyl]-pyrazol-1-yl}-3-chloro-phenoxy)-benzonitrile hydrochloride salt]
> 100000	N#Cc1cc(Oc2cccc(F)c2F)ccc1-n1ncc(C(=O)c2cc3cc(C(=O)N4CCOCC4)ccc3[nH]2)c1N [Example I-21, 2-{5-Amino-4-[5-(morpholine-4-carbonyl)-1H-indole-2-carbonyl]-pyrazol-1-yl}-5-(2,3-difluoro-phenoxy)-benzonitrile]
52	N#CNC(=O)c1ccc2[nH]c(C(=O)c3cnn(-c4ccc(Oc5cccc(C#N)c5)cc4Cl)c3N)cc2c1 [Example I-41, 2-{5-Amino-1-[2-chloro-4-(3-cyano-phenoxy)-phenyl]-1H-pyrazole-4-carbonyl}-N-cyano-1H-indole-5-carboxylic acid amide]
